Measured values taken from patent US20070275948A1, “7-[4-(4-Chlorobenzyloxy)Benzenesulfonyl]-8-Methoxy-3-Methyl-2,3,4,5-Tetrahydro-1h-3-Benzazepinium Maleate Or Tosylate As antipyschotics” (priority 2003, published 2007).

Experiments:
[1] = Hygroscopicity / solid-state stability to humidity; conditions: for stability with respect to hygroscopicity and loss of water / changes when exposed to very high humidity: anhydrates; for stability over the free base and over the hydrochloride salt, particularly with respect to hygroscopicity: compared with free base and hydrochloride salt
dopamine D3 receptor = dopamine D3 receptor (Homo sapiens, UniProt P35462); experiment: Affinity for dopamine D3 receptor; assay type: binding; conditions: for affinity for dopamine D3 relative to D2 receptors: D3 versus D2
Chain of dopamine D3 receptor (P35462 whole entry, species assumed): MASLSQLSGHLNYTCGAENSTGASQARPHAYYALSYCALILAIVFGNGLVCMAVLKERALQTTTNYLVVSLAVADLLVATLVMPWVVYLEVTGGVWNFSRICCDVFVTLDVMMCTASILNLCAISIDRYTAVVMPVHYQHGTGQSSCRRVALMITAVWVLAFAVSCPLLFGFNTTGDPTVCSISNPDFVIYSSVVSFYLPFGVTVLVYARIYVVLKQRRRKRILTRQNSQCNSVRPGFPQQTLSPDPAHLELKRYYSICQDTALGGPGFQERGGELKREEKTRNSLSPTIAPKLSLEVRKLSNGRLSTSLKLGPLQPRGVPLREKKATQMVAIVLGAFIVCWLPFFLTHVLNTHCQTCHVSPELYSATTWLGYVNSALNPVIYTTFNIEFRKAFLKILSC

dopamine D2 receptor = dopamine D2 receptor (Homo sapiens, UniProt P14416); experiment: Affinity for dopamine D2 receptor; assay type: binding
Chain of dopamine D2 receptor (P14416 whole entry): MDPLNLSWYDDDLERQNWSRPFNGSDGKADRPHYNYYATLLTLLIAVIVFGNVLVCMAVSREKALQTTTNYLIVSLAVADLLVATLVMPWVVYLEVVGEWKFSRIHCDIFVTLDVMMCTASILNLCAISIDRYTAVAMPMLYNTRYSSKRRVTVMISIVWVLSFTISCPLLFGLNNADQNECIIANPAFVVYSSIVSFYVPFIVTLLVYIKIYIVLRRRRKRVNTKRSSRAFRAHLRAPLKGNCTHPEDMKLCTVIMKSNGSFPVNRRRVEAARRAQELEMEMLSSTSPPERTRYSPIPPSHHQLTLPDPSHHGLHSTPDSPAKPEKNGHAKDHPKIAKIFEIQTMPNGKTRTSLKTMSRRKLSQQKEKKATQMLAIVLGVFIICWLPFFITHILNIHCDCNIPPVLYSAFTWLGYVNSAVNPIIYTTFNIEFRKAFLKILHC

[2] = biological target: T1, serotonin 5-HT2C receptor (Homo sapiens, UniProt P28335); experiment: Antagonist affinity for serotonin 5-HT2C receptor; assay type: binding
T1 sequence (P28335 33-458): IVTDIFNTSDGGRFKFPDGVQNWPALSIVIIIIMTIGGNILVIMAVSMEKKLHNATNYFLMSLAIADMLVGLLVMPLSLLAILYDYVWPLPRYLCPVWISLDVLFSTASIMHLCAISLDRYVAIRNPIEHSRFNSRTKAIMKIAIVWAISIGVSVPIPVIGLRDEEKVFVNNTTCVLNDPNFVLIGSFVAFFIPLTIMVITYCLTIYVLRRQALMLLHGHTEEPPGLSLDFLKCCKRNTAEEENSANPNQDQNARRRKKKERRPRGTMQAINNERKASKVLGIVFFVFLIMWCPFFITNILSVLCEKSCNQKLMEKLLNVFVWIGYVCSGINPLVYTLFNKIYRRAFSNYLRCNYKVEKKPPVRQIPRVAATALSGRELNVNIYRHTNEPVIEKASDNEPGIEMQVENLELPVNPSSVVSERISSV

For `COc1cc2c(cc1S(=O)(=O)c1ccc(OCc3ccc(Cl)cc3)cc1)CCN(C)CC2` [free base, 7-[4-(4-chlorobenzyloxy)benzenesulfonyl]-8-methoxy-3-methyl-2,3,4,5-tetrahydro-1H-3-benzazepine], the hygroscopicity ([1]; multiple forms, all of those tested) was “hygroscopic”.
In the case of `COc1cc2c(cc1S(=O)(=O)c1ccc(OCc3ccc(Cl)cc3)cc1)CCN(C)CC2.O=C(O)/C=C\C(=O)O` [maleate, 7-[4-(4-chlorobenzyloxy)benzenesulfonyl]-8-methoxy-3-methyl-2,3,4,5-tetrahydro-1H-3-benzazepinium maleate], the “affinity for dopamine D3 receptors” value (dopamine D3 receptor) is reported as “exhibit affinity”, the “affinity for dopamine D3 relative to D2 receptors” value (dopamine D3 receptor) is reported as “greater affinity for dopamine D3 than for D2 receptors” and the “affinity for dopamine D2 receptors” value (dopamine D2 receptor) is reported as “exhibit affinity”. The “antagonist affinity for the serotonin 5-HT2C receptor” value [2] was “antagonist affinity”, the “stability with respect to hygroscopicity and loss of water” value [1] was “particular stability” and the “changes when exposed to very high humidity” value [1] was “reversible changes”. For the same compound, the “stability over the free base and over the hydrochloride salt, particularly with respect to hygroscopicity” value [1] was “improved stability”.
For `COc1cc2c(cc1S(=O)(=O)c1ccc(OCc3ccc(Cl)cc3)cc1)CCN(C)CC2.Cc1ccc(S(=O)(=O)O)cc1` [tosylate, 7-[4-(4-Chlorobenzyloxy)benzenesulfonyl]-8-methoxy-3-methyl-2,3,4,5-tetrahydro-1H-3-benzazepinium p-toluenesulfonate], the “affinity for dopamine D3 receptors” value (dopamine D3 receptor) was “exhibit affinity”, the “affinity for dopamine D3 relative to D2 receptors” value (dopamine D3 receptor) was “greater affinity for dopamine D3 than for D2 receptors” and the “affinity for dopamine D2 receptors” value (dopamine D2 receptor) was “exhibit affinity”. The “antagonist affinity for the serotonin 5-HT2C receptor” value [2] was “antagonist affinity”, the “stability with respect to hygroscopicity and loss of water” value [1] was “particular stability” and the “changes when exposed to very high humidity” value [1] was “reversible changes”. The “stability over the free base and over the hydrochloride salt, particularly with respect to hygroscopicity” value [1] was “improved stability”.
